Data published in patent publication US20140030368A1, “COMPOSITION FOR PREVENTING OR TREATING A RESPIRATORY DISEASE CONTAINING A MIXED HERBAL EXTRACT OF CNIDIUM OFFICINALE ROOT AND POLYGONI CUSPIDATI ROOT” (WHANIN PHARMACEUTICAL CO., LTD., priority 2011, published 2014).

How the values were obtained:
Assay type in all cases: in vivo, mice
[1] = tested on: invasion of inflammatory cells into lung tissue; assay: Invasion of inflammatory cells into lung tissue, LPS-induced asthma/COPD model (H&E score); conditions: ovalbumin + LPS model
Method: Then, the lung was isolated, embedded with paraffin, sectioned to a thickness of […], and stained with H&E (hematoxylin-eosin). The invasion of inflammatory cells into a portion surrounding the airway was measured (see FIG. 3), and the inflammations of the airway and the pulmonary parenchyma were compared and scored.

[2] = tested on: IL-4 (interleukin-4); assay: T cell-derived cytokine from lung tissue, ovalbumin-induced asthma/COPD model
Method: In order to examine whether the extract of the present invention has the effect of inhibiting adaptive immune responses in an ovalbumin (OVA)-induced asthma/chronic obstructive pulmonary disease model, the content of T cell-derived cytokines isolated from lung tissue was measured (see Seong Gyu Jeon et al., J. Allergy Clin. Immunol., 2007, 119, 831-837).
Specifically, a mixture of 75 μg of ovalbumin (OVA, Sigma) and 2 mg of aluminum hydroxide (Alum, Sigma) was intraperitoneally administered twice (days 0 and 7) into BALB/c female mice (6 weeks old; provided from Animal Laboratory in Biotech Center, Pohang University of Science & Technology) to sensitize the mice. At 14, 15 and 21 days after the first sensitization date, 50 μg of ovalbumin in PBS was challenged into the nasal cavity to induce asthma and chronic obstructive pulmonary disease. […]
Then, the lung tissue was finely cut with a blade and incubated with 5 ml of 1× Trypsin-EDTA and 1000 units of chollagenase at 37° C. for 10 […]. […] Then, the supernatant was collected, and the amount of cytokine IL-4 (interleukin-4) in the supernatant was measured using an ELISA (enzyme-linked immunosorbent assay).

[3] = tested on: IL-17 (interleukin 17); assay: T cell-derived cytokine from lung tissue, LPS-induced asthma/COPD model (ELISA); conditions: ovalbumin + LPS model
Method: (§1) In order to examine whether the extract of the present invention has the effect of inhibiting T cell-derived cytokine isolated from the lung tissue of an LPS-derived asthma/chronic obstructive pulmonary disease model, the following test was performed.
(§2) Specifically, the LPS-induced asthma/chronic obstructive pulmonary disease model was prepared by treatment with each of the extract of Example 2 and a comparative drug in the same manner as described in Test Example 7-1. At 6 hours after the final challenge, the mice were anesthetized by intraperitoneal injection with ketamine and xylazine, and lung tissue was obtained from the mice. The lung tissue was cut finely with a blade and incubated with 5 ml of 1× Trypsin-EDTA and 1000 units of chollagenase at 37° C. for 10 minutes. Then, the tissue was passed through a 100 μm mesh to collect only immune cells. To stimulate T cells among the collected cells, 1×10^5 cells and anti-CD28 (1 μg/ml) were added to a 96-well plate coated with anti-CD3 (1 μg/ml) and were incubated in an incubator at 37° C. for 12 hours. Next, the supernatant was collected, and the amounts of the cytokines IL-17 (interleukin 17) and IFN-γ (interferon-γ) in the supernatant were measured using an ELISA (enzyme-linked immunosorbent assay).

[4] = tested on: IFN-γ (interferon-γ); assay: as above; conditions: ovalbumin + LPS model
Method: as §1, §2

[5] = tested on: IFN-γ; assay: T cell-derived cytokine from lung tissue, E. coli-EV-induced model (ELISA)
Method: (§3) In order to examine whether the extract of the present invention has the effect of inhibiting T cell-derived cytokine isolated from the lung tissue of an E. coli-EV-derived asthma/chronic obstructive pulmonary disease model, the following test was performed.
(§4) Specifically, the […] asthma/chronic obstructive pulmonary disease model was prepared by treatment with each of the extract of Example 2 and a comparative drug in the same manner as described in Test Example 8-1. At 6 hours after the final challenge, the mice were anesthetized by intraperitoneal injection with ketamine and xylazine, and lung tissue was obtained from the mice. The lung tissue was cut finely with a blade and incubated with 5 ml of 1× Trypsin-EDTA and 1000 units of chollagenase at 37 °C for 10 minutes. Then, the tissue was passed through a 100 μm mesh to collect only immune cells. To stimulate T cells among the collected cells, 1×10^5 cells and anti-CD28 (1 μg/ml) were added to a 96-well plate coated with anti-CD3 (1 μg/ml) and were incubated in an incubator at 37° C. for 12 hours. Next, the supernatant was collected, and the amounts of cytokines in the supernatant were measured using an ELISA assay.

[6] = tested on: IL-17; assay: as above
Method: as §3, §4

Row | SMILES | Inhibition rate (%) of invasion of inflammatory cells into lung tissue ([1]; 1 mg/kg b.i.d.) [%] | IL-4 inhibition rate (%) ([2]; 1 mg/kg b.i.d. oral) | IL-17 inhibition rate (%) ([3]; 1 mg/kg b.i.d.) | IFN-γ inhibition rate (%) ([4]; 1 mg/kg b.i.d.) | IFN-γ inhibition rate (%) ([5]; 1 mg/kg b.i.d.) | IL-17 inhibition rate (%) ([6]; 1 mg/kg b.i.d.) | Inhibition rate (%) of invasion of inflammatory cells into lung tissue ([1]; 10 mg/kg b.i.d.) [%] | IL-4 inhibition rate (%) ([2]; 10 mg/kg b.i.d. oral) | IL-17 inhibition rate (%) ([3]; 10 mg/kg b.i.d.) | IFN-γ inhibition rate (%) ([4]; 10 mg/kg b.i.d.) | IFN-γ inhibition rate (%) ([5]; 10 mg/kg b.i.d.) | IL-17 inhibition rate (%) ([6]; 10 mg/kg b.i.d.)
1 | C[C@@H]1C[C@H]2[C@@H]3CCC4=CC(=O)C=C[C@]4(C)[C@@]3(F)[C@@H](O)C[C@]2(C)[C@@]1(O)C(=O)CO [Dexamethason, dexamethason] | 28.87 | 43.57 | 23.12 | 15.19 | 1.13 | 1.12 | – | – | – | – | – | –
2 | CC(C)(O)c1ccccc1CC[C@@H](SCC1(CC(=O)O)CC1)c1cccc(/C=C/c2ccc3ccc(Cl)cc3n2)c1 [montelukast] | – | – | – | – | – | – | 8.25 | 14.07 | 68.42 | 14.50 | 0.23 | 0.22
